Measurements published in patent US12318452B2, “Degraders of WEE1 kinase” (DANA-FARBER CANCER INSTITUTE, INC., priority 2018, dated 2025).

Columns and labels:
PLK1 = PLK1 (Homo sapiens, UniProt P53350); assay: Z′-LYTE kinase activity assay for PLK1; type: biochemical; set-up: purchased Life Technologies (Invitrogen) commercial assay service; details: Km ATP, average of two replicates ± SD
Procedure: (§1) LanthaScreen™ assays were conducted for Wee1 in a 10-point dose response as performed in the commercial assay service by Life Technologies™. Z′-LYTE™ assays were conducted for PLK1 as performed in the commercial assay service by Life Technologies™ in a 10-point dose response using Km ATP concentrations.
The selectivity of Wee1 degradation was then assessed by performing multiplexed mass spectrometry (MS)-based proteomics in MOLT4 cells treated with 100 nM of compound 13 for 2 hours (Donovan et al., Elife 7:e38430 (2018)).

MOLT4 cells = assay: Cell cycle analysis by propidium iodide staining; type: cell-based
Procedure: MOLT4 cells were plated at 1.5 million cells per well in a 6-well plate, with 3 mL of media per well. Immediately after plating, cells were treated with the indicated concentrations of the indicated compound. At the indicated time points, cells were collected by transferring each well to a 15 mL conical, centrifuging (1000 rpm for 3 min), and then washing the cell pellet 3× with cold PBS. Cell pellets were then fixed with 1 mL cold 80% ethanol in PBS at 4° C. overnight. The cell pellets were then washed by adding 1 mL of PBS and then centrifuging (1500 rpm for 5 minutes), followed by aspiration of the PBS/ethanol mix. Cells were resuspended in cell cycle staining solution (100 μg/mL of RNAse A (Roche, 10109169001) and 50 μg/mL propidium iodide (Life Technologies™, P1304MP), diluted in PBS, and incubated for 10 minutes at room temperature. Cell cycle data was acquired by flow cytometry on a Guava® easyCyte™ flow cytometer (Millipore™) using the InCyte™ software. Data was analyzed using FlowJo®. N=3 biological replicates were used for each treatment condition.

[1] = system: MOLT4 cells (parental, wild type); assay: CellTiter-Glo cell viability, 72 hours; type: cell-based; details: for Antiproliferative activity: 72-hr
Procedure: The indicated cell lines were plated in flat bottom 384-well plates (Corning® cat #3570). MOLT4 cells were plated at a density of 3,000 cells per well in 50 μL media, while OVCAR8, COV362, and Kuramochi cells were plated at a density of 750 cells per well in 50 μL media. Cells were treated the next day (except for MOLT4 cells, which were treated the same day as plating) with 0.1 μL of the indicated compounds in a four-fold dilution series using the Janus pinner. Cells were incubated with compounds for 72 hours at 37° C. 5% CO2. Anti-proliferative effects were then assessed by CellTiter-Glo® Luminescent Cell Viability Assay (Promega™ cat #G7570) according to the manufacturer's standards, measuring luminescence using an EnVision® plate-reader. IC50 values were determined using a non-linear regression curve fit in GraphPad Prism 8. N=4 biological replicates were used for each treatment condition.
MOLT4 cells were plated in a 384-well plate at 5,000 cells per well in 50 μL media (RPMI+10% FBS+1% Penn/Strep) and treated with 0.1 μL of the candidate compounds in four-fold dilution series using the Janus pinner. Cells were incubated with compounds for 72 hours at 37° C. 5% CO2. Anti-proliferative effects of these compounds were assessed 72 hours after compound addition using CellTiter-Glo® (Promega, cat #G7571). All proliferation assays were performed in biological quadruplicate. […] Effects upon cell viability for compound 13 in the MOLT4 WT cells are therefore likely driven in part by Wee1 inhibition, and in part by CRBN-mediated Wee1 degradation. […] Degradation of Wee1 with compound 21 was mediated by VHL.

pCDK1 Y15 = assay: Downstream signalling immunoblot in MOLT4 cells (pCDK1 Y15, cleaved PARP, γH2Ax); type: cell-based; details: MOLT4 cells
Procedure: Whole cell lysates for immunoblotting were prepared by pelleting cells from each cell line at 4° C. (300 g) for 5 minutes. The resulting cell pellets were washed 1× with ice-cold PBS and then resuspended in RIPA lysis buffer (Sigma, cat #R0278) supplemented with protease and phosphatase inhibitor tablets (Roche cat #4906845001). Lysates were clarified at 14,000 rpm for 15 minutes at 4° C. prior to quantification by BCA assay (Pierce™, cat #23225). Whole cell lysates were loaded into Bolt 4-12% Bis-Tris Gels (Thermo Fisher, cat #NW04120BOX) and separated by electrophoreses at 95 V for 1.5 hours. The gels were transferred to a nitrocellulose membrane using the iBlot® Gel Transfer at P3 for 7 minutes (Thermo Fisher, cat #IB23001) and then blocked for 1 hour at room temperature in Odyssey® blocking buffer (LICOR® Biosciences, cat #927-50010). Membranes were probed using antibodies against the relevant proteins at 4° C. overnight in 20% Odyssey® Blocking Buffer in 1×TBST. Membranes were then washed three times with 1×TBST (at least 5 minutes per wash) followed by incubation with the IRDye® goat anti-mouse (LICOR®, cat #926-32210) or goat anti-rabbit (LICOR®, cat #926-32211) secondary antibody (diluted 1:10,000) in 20% Odyssey® Blocking Buffer in 1×TBST for 1 hour at room temperature. After three washes with 1×TBST (at least 5 minutes per wash), the immunoblots were visualized using the ODYSSEY® Infrared Imaging System (LICOR®).
MOLT4 cells were plated at 1.5 million cells per well in a 6-well plate, with 3 mL of media per well. Cells were then immediately treated with the indicated concentration of the indicated compound and incubated for the indicated amount of time. Cells were collected by transferring each well to a 15 mL conical, centrifuging (1000 rpm for 3 min), then washing the cell pellet 2× with cold PBS. Each cell pellet was then lysed in 100 μL of RIPA lysis buffer (+protease/phosphatase inhibitors). Samples were normalized and prepped in 4×LDS+10% β-mercaptoethanol and boiled for 5 min at 95° C. Lysates were probed for specified proteins by western blotting using the Bolt® system (Life Technologies™)
The effects of targeted Wee1 degradation on the cell cycle were evaluated. Wee1 is required for the temporal regulation of CDK1 at the G2/M cell-cycle checkpoint, and Wee1 loss therefore […] via activation of CDK1. Following loss of Wee1 activity, cells are expected to enter mitosis before completing DNA repair, ultimately resulting in excessive unrepaired DNA damage, mitotic catastrophe, and apoptosis (Beck et al., Mol. Cell Biol. 32:4226-4236 (2012)).

Wee1 = Wee1 (Homo sapiens, UniProt P30291); assay: LanthaScreen FRET-based biochemical binding assay for Wee1; details: LanthaScreen Binding activity assay; average of two replicates ± SD
Sequence of Wee1 (P30291 whole entry): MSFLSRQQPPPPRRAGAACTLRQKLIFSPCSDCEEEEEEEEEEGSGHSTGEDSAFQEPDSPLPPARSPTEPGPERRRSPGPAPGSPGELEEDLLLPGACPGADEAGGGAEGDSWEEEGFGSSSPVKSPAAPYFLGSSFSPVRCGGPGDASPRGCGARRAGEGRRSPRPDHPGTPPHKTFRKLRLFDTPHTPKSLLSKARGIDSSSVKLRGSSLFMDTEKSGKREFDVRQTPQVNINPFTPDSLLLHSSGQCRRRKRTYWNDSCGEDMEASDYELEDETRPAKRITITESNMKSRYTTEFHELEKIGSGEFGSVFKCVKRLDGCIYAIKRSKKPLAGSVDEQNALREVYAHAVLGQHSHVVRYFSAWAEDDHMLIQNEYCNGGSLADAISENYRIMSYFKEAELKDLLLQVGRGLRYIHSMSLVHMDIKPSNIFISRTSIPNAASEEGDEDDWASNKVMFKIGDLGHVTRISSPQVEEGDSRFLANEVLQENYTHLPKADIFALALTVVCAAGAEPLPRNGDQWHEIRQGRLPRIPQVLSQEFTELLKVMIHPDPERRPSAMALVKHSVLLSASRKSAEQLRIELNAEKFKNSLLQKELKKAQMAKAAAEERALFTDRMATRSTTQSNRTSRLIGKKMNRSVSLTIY
Procedure: as §1

OVCAR8 cells = assay: Synergy experiment, CellTiter-Glo co-treatment for 72 hours; type: cell-based

Sequence of PLK1 (P53350 whole entry): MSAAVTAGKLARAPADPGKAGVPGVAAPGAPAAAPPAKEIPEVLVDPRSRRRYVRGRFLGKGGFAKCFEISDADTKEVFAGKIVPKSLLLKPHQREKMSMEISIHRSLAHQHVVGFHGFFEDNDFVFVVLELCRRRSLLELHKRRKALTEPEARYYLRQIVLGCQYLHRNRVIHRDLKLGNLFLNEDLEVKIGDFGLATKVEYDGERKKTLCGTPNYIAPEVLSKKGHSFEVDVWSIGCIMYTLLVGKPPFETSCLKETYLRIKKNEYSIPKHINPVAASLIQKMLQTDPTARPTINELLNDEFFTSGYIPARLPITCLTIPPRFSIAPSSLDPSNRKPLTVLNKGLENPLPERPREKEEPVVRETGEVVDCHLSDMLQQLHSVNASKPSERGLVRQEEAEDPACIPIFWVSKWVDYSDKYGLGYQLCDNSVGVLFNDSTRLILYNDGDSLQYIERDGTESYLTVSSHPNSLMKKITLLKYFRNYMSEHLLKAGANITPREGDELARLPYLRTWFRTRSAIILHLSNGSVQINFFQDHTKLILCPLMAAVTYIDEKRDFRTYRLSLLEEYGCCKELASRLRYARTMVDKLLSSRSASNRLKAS

| IC50 (PLK1) [nM] | IC50 (Wee1) [nM] | SMILES | Effect on the cell cycle (MOLT4 cells; 100 nM, 24-hr, MOLT4 cells) | Dose needed to elicit the same cell cycle changes as 100 nM of compound 13 (MOLT4 cells; 24-hr, MOLT4 cells) [µM] | Cell cycle effects in CRBN−/− cells (MOLT4 cells; CRBN−/− MOLT4 cells, 24 hours) | IC50 ([1]; Homo sapiens, MOLT-4, 72 hours, read-out: Antiproliferative IC50) [nM] | Downstream signalling changes (pCDK1 Y15, PARP cleavage, γH2Ax) (pCDK1 Y15; 100 nM, 24-hr) | Treatment necessary to induce the same downstream changes as 100 nM of compound 13 (pCDK1 Y15; 24-hr) [µM] | Effect on the cell cycle (MOLT4 cells; 1 μM, 24 hours, MOLT4 cells) | Antiproliferative activity [1] | Effect on phosphorylation of CDK1 Y15, apoptosis, DNA damage (pCDK1 Y15; 1 μM, 24 hours) | Synergy with AZD1775 (OVCAR8 cells; 72-hr co-treatment with AZD1775) | Synergy with Olaparib (OVCAR8 cells; 72-hr co-treatment with Olaparib) |
| --- | --- | --- | --- | --- | --- | --- | --- | --- | --- | --- | --- | --- | --- |
| 212 ± 12 |  | C=CCn1c(=O)c2cnc(Nc3ccc(N4CCN(C)CC4)cc3)nc2n1-c1cccc(C(C)(C)O)n1 [AZD1775, 2-allyl-1-[6-(1-hydroxy-1-methylethyl)pyridin-2-yl]-6-{[4-(4-methylpipera-zin-1-yl)phenyl]amino}-1,2-dihydro-3H-pyrazolo[3,4-d]pyrimidin-3-one, reference compound] | did not appreciably affect the cell cycle | 1 | unchanged | 800 | did not produce any noticeable changes | 1 |  |  |  |  |  |
|  |  | Nc1cccc2c1CN(C1CCC(=O)NC1=O)C2=O (stereo not drawn) [Lenalidomide, reference compound] |  |  |  |  |  |  | did not induce any significant changes | no detectable antiproliferative activity |  |  |  |
| > 10000 | > 10000 | Nc1cccc2c1C(=O)N(C1CCC(=O)NC1=O)C2=O (stereo not drawn) [Pomalidomide, reference compound] |  |  |  |  |  |  |  | no detectable antiproliferative activity | did not affect phosphorylation of CDK1 Y15, apoptosis, or levels of DNA damage | not synergistic | not synergistic |
